# Literature values in article PMC6915728 (Nature Communications, 2019).
# Read-outs that look alike come from different tables or passages of the source. Ends that are not written are not given here.
# Test system: bacterial species in which the gene showed activity
# Conditions: cited from earlier work
# [1] = Klebsiella pneumoniae, ref http://www.ncbi.nlm.nih.gov/pmc/articles/PMC2798511/
# [2] = Salmonella typhimurium, Escherichia coli, ref https://www.ncbi.nlm.nih.gov/pmc/articles/PMC3037666/, https://www.ncbi.nlm.nih.gov/pmc/articles/PMC3837802/pdf/zam7770.pdf
# [3] = Salmonella typhimurium, Escherichia coli, ref https://www.ncbi.nlm.nih.gov/pmc/articles/PMC3037666/, https://www.ncbi.nlm.nih.gov/pmc/articles/PMC4808223/
# [4] = Salmonella typhimurium, ref https://www.ncbi.nlm.nih.gov/pmc/articles/PMC3037666/
# [5] = Staphylococcus aureus, SalmonellaTyphimurium, ref http://ac.els-cdn.com/S0022202X15369608/1-s2.0-S0022202X15369608-main.pdf?_tid=6fa51c80-693e-11e6-b18c-00000aacb362&acdnat=1471962936_8118358d97a056d7d78b5e8b4ca8d03b, https://www.sciencedirect.com/science/article/pii/S0928824401002917
# [6] = Staphylococcus aureus, Staphylococcus xylosus, ref http://www.jbc.org/content/274/13/8405.full.pdf
# [7] = Staphylococcus aureus, ref https://www.ncbi.nlm.nih.gov/pubmed/14707093
# [8] = Salmonella enterica serovar Typhimurium, ref http://www.microbiologyresearch.org/docserver/fulltext/micro/154/2/666.pdf?expires=1487718158&id=id&accname=guest&checksum=D8B884D02A8B2A8619216A48E0826377
# [9] = Staphylococcus aureus, ref http://onlinelibrary.wiley.com/doi/10.1111/j.1365-2958.2007.05986.x/epdf
# [10] = Neisseria meningitidis, Neisseria gonorrhoeae, ref http://www.ncbi.nlm.nih.gov/pmc/articles/PMC1196002/
# [11] = Neisseria meningitidis, ref https://www.ncbi.nlm.nih.gov/pmc/articles/PMC1196002/
# [12] = Staphylococcus epidermidis, ref http://jb.asm.org/content/178/2/531.full.pdf, https://www.ncbi.nlm.nih.gov/pmc/articles/PMC4239024/
# [13] = Klebsiella pneumoniae, ref http://iai.asm.org/content/72/12/7107.full.pdf+html
molecule,measurement,setting,value
"human beta-defensin 1 (DHYNCVSSGGQCLYSACPIFTKIQGTCYRGKAKCCK; ends and bridges not checked; cysteine pairing not given here; UniProt P60022 33-68, looked up)",Gene that modulates bacterial susceptibility to the AMP,[1],acrB
magainin 2,Gene that modulates bacterial susceptibility to the AMP,[2],cpxA (CpxA/CpxR)
same,Gene that modulates bacterial susceptibility to the AMP,[3],"amiA, amiC"
same,Gene that modulates bacterial susceptibility to the AMP,[4],tatA
polymyxin E,Gene that modulates bacterial susceptibility to the AMP,"Bordetella pertussis, ref http://www.ncbi.nlm.nih.gov/pmc/articles/PMC4136009/","lgmA, IgmB, IgmC"
lactoferricin B,Gene that modulates bacterial susceptibility to the AMP,[5],hemB
Colistin,Gene that modulates bacterial susceptibility to the AMP,"Acinetobacter baumannii, ref https://mbio.asm.org/content/4/3/e00021-13",pmrB
same,Gene that modulates bacterial susceptibility to the AMP,"Escherichia coli, Klebsiella pneumoniae, Pseudomonas aeruginosa, Kluyvera ascorbata, ref http://www.ncbi.nlm.nih.gov/pubmed/26603172, http://ac.els-cdn.com/S1473309915005332/1-s2.0-S1473309915005332-main.pdf?_tid=16a7f944-6944-11e6-8a9d-00000aab0f02&acdnat=1471965364_7f481026d1a49114e23adef4a6b4d1a9, https://www.ncbi.nlm.nih.gov/pmc/articles/PMC5119035/",mcr1
same,Gene that modulates bacterial susceptibility to the AMP,"Pseudomonas aeruginosa, ref https://onlinelibrary.wiley.com/doi/epdf/10.1111/j.1365-2958.2008.06152.x","mexA, mexB"
Human alfa-defensin3,Gene that modulates bacterial susceptibility to the AMP,[6],dltA (dlt operon)
protegrin,Gene that modulates bacterial susceptibility to the AMP,"Salmonella typhimurium, Salmonella typhi, ref http://www.sciencedirect.com/science/article/pii/S009286740081750X",pagP
GIGKFLHSAKKFGKAFVGEIMNS [Magainin 2],Gene that modulates bacterial susceptibility to the AMP,"Salmonella enterica serovar Typhimurium, ref http://onlinelibrary.wiley.com/doi/10.1111/j.1365-2958.2004.04107.x/full",yqjA
same,Gene that modulates bacterial susceptibility to the AMP,"Salmonella enterica serovar Typhimurium, ref http://www.jbc.org/content/279/37/38618.long, https://onlinelibrary.wiley.com/doi/epdf/10.1111/j.1365-2958.2005.04553.x",slyA
same,Gene that modulates bacterial susceptibility to the AMP,"Salmonella enterica serovar Typhimurium, ref http://www.jbc.org/content/279/37/38618.long",ugtL
Human alpha-defensin-1,Gene that modulates bacterial susceptibility to the AMP,[7],sak
human beta-defensin-2,Gene that modulates bacterial susceptibility to the AMP,[8],yejA
nisin,Gene that modulates bacterial susceptibility to the AMP,[6],dltA (dlt operon)
same,Gene that modulates bacterial susceptibility to the AMP,[9],apsS
CC[C@H](C)[C@H](NC(=O)CN)C(=O)NCC(=O)N[C@@H](C)C(=O)N[C@H](C(=O)N[C@@H](CC(C)C)C(=O)N[C@@H](CCCCN)C(=O)N[C@H](C(=O)N[C@@H](CC(C)C)C(=O)N[C@H](C(=O)N[C@H](C(=O)NCC(=O)N[C@@H](CC(C)C)C(=O)N1CCC[C@H]1C(=O)N[C@@H](C)C(=O)N[C@@H](CC(C)C)C(=O)N[C@H](C(=O)N[C@@H](CO)C(=O)N[C@@H](Cc1c[nH]c2ccccc12)C(=O)N[C@H](C(=O)N[C@@H](CCCCN)C(=O)N[C@@H](CCCNC(=N)N)C(=O)N[C@@H](CCCCN)C(=O)N[C@@H](CCCNC(=N)N)C(=O)N[C@@H](CCC(N)=O)C(=O)N[C@@H](CCC(N)=O)C(N)=O)[C@@H](C)CC)[C@@H](C)CC)[C@@H](C)O)[C@@H](C)O)C(C)C)C(C)C [melittin],Gene that modulates bacterial susceptibility to the AMP,[8],yejA
same,Gene that modulates bacterial susceptibility to the AMP,[2],cpxA (CpxA/CpxR)
bacitracin,Gene that modulates bacterial susceptibility to the AMP,"Listeria monocytogenes, ref https://www.ncbi.nlm.nih.gov/pmc/articles/PMC2944581/",anrA (lmo2114)
same,Gene that modulates bacterial susceptibility to the AMP,"Staphylococcus aureus, ref https://www.ncbi.nlm.nih.gov/pmc/articles/PMC3718698/","braA,braB"
"protegrin-1 (RGGRLCYCRRRFCVCVGR; ends and bridges not checked; cysteine pairing not given here; UniProt P32194 131-148, looked up)",Gene that modulates bacterial susceptibility to the AMP,[10],"mtrC, mtrD, mtrE"
same,Gene that modulates bacterial susceptibility to the AMP,[11],lptA
same,Gene that modulates bacterial susceptibility to the AMP,,pgtE
"dermcidin (SSLLEKGLDGAKKAVGGLGKLGKDAVEDLESVGKGAVHDVKDVLDSV; DCD-1; UniProt P81605 63-109, looked up)",Gene that modulates bacterial susceptibility to the AMP,[9],apsS
"gallidermin (IASKFLCTPGCAKTGSFNSYCC; also: lantibiotic, thioether rings, places not given here; UniProt P21838 31-52, looked up)",Gene that modulates bacterial susceptibility to the AMP,[6],dltA (dlt operon)
same,Gene that modulates bacterial susceptibility to the AMP,[12],"epiE, epiF, epiG"
human neutrophil peptide-1,Gene that modulates bacterial susceptibility to the AMP,[1],acrB
same,Gene that modulates bacterial susceptibility to the AMP,[3],"amiA, amiC"
Magainin II,Gene that modulates bacterial susceptibility to the AMP,[6],dltA (dlt operon)
"human defensin (human beta-defensin)-1 (DHYNCVSSGGQCLYSACPIFTKIQGTCYRGKAKCCK; ends and bridges not checked; cysteine pairing not given here; UniProt P60022 33-68, looked up)",Gene that modulates bacterial susceptibility to the AMP,[8],yejA
Human alfa-defensin1,Gene that modulates bacterial susceptibility to the AMP,[6],dltA (dlt operon)
CRAMP,Gene that modulates bacterial susceptibility to the AMP,,pgtE
"Human beta-defensin3 (GIINTLQKYYCRVRGGRCAVLSCLPKEEQIGKCSTRGRKCCRRKK; ends and bridges not checked; cysteine pairing not given here; UniProt P81534 23-67, looked up)",Gene that modulates bacterial susceptibility to the AMP,[9],apsS
lactoferrin,Gene that modulates bacterial susceptibility to the AMP,[13],cps
colistin,Gene that modulates bacterial susceptibility to the AMP,"Acinetobacter baumannii, ref http://aac.asm.org/content/54/12/4971.full.pdf+html",lpxA
same,Gene that modulates bacterial susceptibility to the AMP,[5],hemB
"Human alpha-defensin-2 (CYCRIPACIAGERRYGTCIYQGRLWAFCC; ends and bridges not checked; cysteine pairing not given here; UniProt P59665 66-94, looked up)",Gene that modulates bacterial susceptibility to the AMP,[7],sak
Nisin,Gene that modulates bacterial susceptibility to the AMP,"Bacillus subtilis, gene psdA (yvcR), […]",psdA (yvcR)
same,Gene that modulates bacterial susceptibility to the AMP,"Bacillus subtilis, gene psdB (yvcS), […]",psdB (yvcS)
same,Gene that modulates bacterial susceptibility to the AMP,"Lactococcus lactis, genes nisE, nisF, nisG, […]","nisE, nisF, nisG"
same,Gene that modulates bacterial susceptibility to the AMP,"Lactococcus lactis, genes ysaB, ysaC, […]","ysaB, ysaC"
same,Gene that modulates bacterial susceptibility to the AMP,"Listeria monocytogenes, […]",anrA (lmo2114)
same,Gene that modulates bacterial susceptibility to the AMP,"Staphylococcus aureus, […]","braA,braB"
Human neutrophil peptide-1,Gene that modulates bacterial susceptibility to the AMP,[13],cps
"Epidermin (IASKFICTPGCAKTGSFNSYCC; also: lantibiotic, thioether rings, places not given here; UniProt P08136 31-52, looked up)",Gene that modulates bacterial susceptibility to the AMP,[12],"epiE, epiF, epiG"
"beta-defensin-1 (DHYNCVSSGGQCLYSACPIFTKIQGTCYRGKAKCCK; ends and bridges not checked; cysteine pairing not given here; UniProt P60022 33-68, looked up)",Gene that modulates bacterial susceptibility to the AMP,,pla
"human beta-defensin 3 (GIINTLQKYYCRVRGGRCAVLSCLPKEEQIGKCSTRGRKCCRRKK; ends and bridges not checked; cysteine pairing not given here; UniProt P81534 23-67, looked up)",Gene that modulates bacterial susceptibility to the AMP,[5],hemB
human beta-defensin 2,Gene that modulates bacterial susceptibility to the AMP,[1],acrB
same,Gene that modulates bacterial susceptibility to the AMP,[5],hemB
"LL-37 (LLGDFFRKSKEKIGKEFKRIVQRIKDFLRNLVPRTES; Antibacterial peptide LL-37; UniProt P49913 134-170, looked up)",Gene that modulates bacterial susceptibility to the AMP,[10],"mtrC, mtrD, mtrE"
same,Gene that modulates bacterial susceptibility to the AMP,[11],lptA
same,Gene that modulates bacterial susceptibility to the AMP,[5],hemB
same,Gene that modulates bacterial susceptibility to the AMP,"Staphylococcus epidermidis, ref http://onlinelibrary.wiley.com/doi/10.1046/j.1462-5822.2004.00367.x/epdf",icaA(ica operon)
"human beta-defensin-1 (DHYNCVSSGGQCLYSACPIFTKIQGTCYRGKAKCCK; ends and bridges not checked; cysteine pairing not given here; UniProt P60022 33-68, looked up)",Gene that modulates bacterial susceptibility to the AMP,"Burkholderia cenocepacia, ref http://www.microbiologyresearch.org/docserver/fulltext/micro/155/9/2818.pdf?expires=1468919235&id=id&accname=guest&checksum=2CEA64BA8195145BE72C98BB20076628",zmpB
same,Gene that modulates bacterial susceptibility to the AMP,[13],cps
same,Gene that modulates bacterial susceptibility to the AMP,"Proteus mirabilis, ref http://www.ncbi.nlm.nih.gov/pmc/articles/PMC517467/pdf/0713-04.pdf",zapA
mellitin,Gene that modulates bacterial susceptibility to the AMP,[3],"amiA, amiC"
same,Gene that modulates bacterial susceptibility to the AMP,[4],tatA
